Entries after “also recorded” stand apart in the source; their conditions may differ.
Target: human A2AAR (Homo sapiens, UniProt P29274)
Assay: Radioligand binding assay at A2AAR, membranes of HEK-293 cells, [3H]16
Details: comparison within the amino acid conjugate series and with parent 16

Sequence of human A2AAR (P29274 whole entry): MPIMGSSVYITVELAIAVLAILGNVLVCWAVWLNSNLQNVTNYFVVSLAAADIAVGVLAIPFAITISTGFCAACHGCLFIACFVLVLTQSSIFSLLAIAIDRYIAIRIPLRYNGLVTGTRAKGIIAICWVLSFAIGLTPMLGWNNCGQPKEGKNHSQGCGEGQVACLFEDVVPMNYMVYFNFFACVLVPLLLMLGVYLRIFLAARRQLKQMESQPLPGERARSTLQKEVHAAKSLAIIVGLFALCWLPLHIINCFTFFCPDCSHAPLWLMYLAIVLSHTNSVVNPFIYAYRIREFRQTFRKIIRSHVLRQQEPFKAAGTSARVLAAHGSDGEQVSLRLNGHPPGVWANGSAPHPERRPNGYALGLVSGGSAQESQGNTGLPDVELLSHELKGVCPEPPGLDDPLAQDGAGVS

Compound | Relative A2AAR binding affinity (in words)
CCNC(=O)[C@H]1O[C@@H](n2cnc3c(N)nc(NCCc4ccc(CCC(=O)N[C@H](CCCNC(=N)N)C(=O)O)cc4)nc32)[C@H](O)[C@@H]1O [Compound 36] | some gain in affinity
CCNC(=O)[C@H]1O[C@@H](n2cnc3c(N)nc(NCCc4ccc(CCC(=O)N[C@H](Cc5ccccc5)C(=O)O)cc4)nc32)[C@H](O)[C@@H]1O [Compound 38] | most potent; also recorded: some gain in affinity
CCNC(=O)[C@H]1O[C@@H](n2cnc3c(N)nc(NCCc4ccc(CCC(=O)N[C@H](Cc5c[nH]cn5)C(=O)O)cc4)nc32)[C@H](O)[C@@H]1O [Compound 42] | most potent; also recorded: some gain in affinity

From article PMC3261785 (Journal of Medicinal Chemistry, 2011)
